{"source": "patent EP2474552A1", "about": "“New saccharide mimics and their use as inhibitors of angiogenesis and metastasis formation” (Deutsches Krebsforschungszentrum, priority 2011, dated 2012)", "key": {"[1]": {"test_system": "human melanoma cells", "test": "Vitality test with Trypanblue", "conditions": "cells of the migration assay"}, "[2]": {"test_system": "WM-266-4 cells", "test": "Adhesion assay with WM-266-4 cells on fibronectin", "type": "cell-based, human", "method": "Microtiter plates with 96 wells were coated with 0.5 µg of fibronectin in 50 µl over night at 4° C and blocked with 200 µl adhesion buffer (1% BSA in PBS without Ca^2+/Mg^2+). WM-266-4 cells were pre-incubated with the test compounds at the respective concentrations in serum free medium for 60 min in a shaker (600 rpm) at 37° C. Afterwards, 4 x 10^4 cells in 100 µl were withdrawn and added into each well and incubated for 1 h at 37° C. Medium and non-adherent cells were aspirated and adherent cells were fixed in 4% formalin in PBS. The plates were washed with 0.01 M borate buffer (Stock-solution: 20 mM boric acid, 100 mM sodium tetraborate; pH 8.5; working solution: 0.01 M dilution in H2O) and 50 µl of 0.01 % methylene blue in borate buffer were added, wherein the cells were stained for 10 min at room temperature. The plates were extensively washed with water and air-dried. The air-dried plates were incubated for 45 min with 200 µl/well extraction buffer (a mixture of 0.1 N HCl and absolute EtOH (1:1, vol/vol)), wherein the adherent cells were quantified in an ELISA-reader, which read the extinction at 651 nm.\nThe human melanoma cells adhered to the fibronectin coated cell culture dishes. This adhesion is a prerequisite for growth of circulating cells such as occurs when these metastasize to sites distant from the tumor. The compounds described herein can inhibit such adhesion to the extracellular matrix protein fibronection or laminin to various degrees."}, "[3]": {"test_system": "WM-115 cells", "test": "Wound healing assay (cell migration)", "type": "cell-based, human", "design": "key to inhibit the cell migration of WM-115 cells: (-) means that the cell migration was not inhibited and that the wound healed; (+) means a slight inhibition, which slows the trend to heal; (++) means that the cell migration was inhibited, since only some cells were visible in the wound; (+++) means the absolute inhibition of cell migration", "conditions": "for concentration at which the migration of human melanoma cells is inhibited: summary of Table 1", "method": "The compounds of the present invention were analyzed by means of a migration-assay, called \"wound healing assay\", that determines the inhibition-rate of the compounds on human melanoma cell line migration. Another migration assay, the so-called the Oris™ cell migration assay, is also applicable to examine the cell migration inhibitory effects of the compounds of the present invention. The used melanoma cells lines were WM-115 and WM-266-4, which are accepted in-vitro model cell systems. The human cell line WM-115 is derived from the primary tumor of a vertical growth phase (VGP) melanoma, whereas the cell line WM-266-4 is derived from the corresponding cutaneous metastasis. The \"wound healing assay\" is applicable to examine the cell migration inhibitory effects of the compounds of the present invention, which is described in further detail in the Examples. Furthermore, the \"wound healing assay\" is based on the fact that when wounded or scratched, cell monolayers respond to the disruption of cell-cell contacts and an increased concentration of growth factors at the wound margin by healing the wound through a combination of proliferation and migration, according to Yarrow, J.C., et al., BMC Biotechnol., 2004: 4, 21-29. In order to investigate the cell migration an intact cell monolayer is wounded with a pipette tip.\nThe wound healing assay has been carried out according to description as disclosed in Yarrow, J.C., et al., BMC Biotechnol., 2004: 4, 21-29. For carrying out the wound healing assay, 2 x 10^5 cells were grown in one well of a 12-well-plate under cell culture specific conditions for 24 h. After 24 h, a wound has been scratched in the confluently grown cell monolayer with a 100 µl pipette-tip. Detached cells were removed by washing with serum-free medium and new media with the respective compounds to be tested were supplemented with varying amounts. The cells were incubated under cell culture specific conditions and always the same section was photographed after 2, 4, 8 and 24 under the phase contrast microscope. The untreated cells healed the wound through a combination of proliferation and migration after 24 h.\nThe following table (Table 1) is a summary of the results obtained by carrying out the above described wound healing assay with varying amounts of compounds of the present invention to inhibit the cell migration of WM-115 cells, wherein (-) means that the cell migration was not inhibited and that the wound healed, (+) means a slight inhibition, which slows the trend to heal, (++) means that the cell migration was inhibited, since only some cells were visible in the wound, and (+++) means the absolute inhibition of cell migration. The abbreviation \"n.d.\" means \"not determined\"."}, "[4]": {"test_system": "murine B16F10 cells", "conditions": "cited from earlier work"}, "[5]": {"test_system": "WM-266-4 cells", "conditions": "WM-266-4, at 5 mM; cited from earlier work"}, "[6]": {"test_system": "WM-115", "conditions": "WM-115, 5 mM; cited from earlier work"}, "[7]": {"test_system": "human WM-115 cells", "conditions": "cited from earlier work"}, "[8]": {"test_system": "WM-266-4", "conditions": "WM-266-4, 2.5 mM; cited from earlier work"}, "[9]": {"test_system": "matrix-metalloproteinase-2 (MMP-2)", "conditions": "cited from earlier work"}, "[10]": {"test_system": "WM-115", "conditions": "WM-115, at 5 mM; cited from earlier work"}, "[11]": {"test_system": "HBMEC-60 cells", "test": "Adhesion assay with HBMEC cells (TNF-α stimulated) on laminin", "type": "cell-based, human", "method": "Microtiter plates with 96 wells coated with the extracellular matrix component type I collagen, fibronenctin or laminin were used. HBMEC-60 cells which had been pre-incubated with the tumor necrosis factor (TNF-α, 40 ng/ml) for 24 hrs were incubated with the test compounds at the respective concentrations in serum free medium for endothelial cells (Promozell, Heidelberg, Germany) without growth factors for 30 min in 1.5 mL microfuge tubes (Eppendorf, Hamburg, Germany). Afterwards, 4 x 10^4 HBMEC-60 cells in 100 µl were withdrawn and added into each well. The plates were incubated at 37° C for 30 min and subsequently washed twice with PBS (with CaCl2 und MgSO4). Then, the adherent cells were fixed, washed and stained with methylene blue, the dye released and the extinction read as described above for the experiments with the melanoma cells.\nAdhesion of endothelial cells to extracellular matrix proteins like laminin is a prerequisite for angiogenesis."}, "[12]": {"test_system": "human melanoma cells"}}, "note": "Read-outs that look alike come from different tables or passages of the source."}
{"smiles": "OC[C@H]1O[C@@H](OCc2cocc2CF)[C@H](O)[C@@H](O)[C@H]1O", "note": "[GFF, 3-(β-D-galactopyranosyl-oxymethyl)-4-(fluoro-methyl)-furan]", "values": [{"measurement": "vitality test with Trypanblue", "setting": "[1]", "result": "cells were intact"}, {"measurement": "inhibition at 100 µM", "setting": "[2]; Homo sapiens, WM 266-4, concentration of 0.1 mM", "result": 34, "unit": "%"}, {"measurement": "inhibition at 5000 µM", "setting": "[2]; Homo sapiens, WM 266-4, concentration of 5 mM", "result": 62, "unit": "%"}, {"measurement": "inhibit the cell migration of WM-115 cells", "setting": "[3]; Concentration 1 mM", "result": "+"}, {"measurement": "inhibit the cell migration of WM-115 cells", "setting": "[3]; Concentration 2.5 mM", "result": "+++"}, {"measurement": "inhibit the cell migration of WM-115 cells", "setting": "[3]; Concentration 5mM", "result": "+++"}]}
{"smiles": "O=S(=O)(O)OCc1cocc1CO[C@@H]1O[C@H](CO)[C@H](O)[C@H](O)[C@H]1O", "note": "[GSF, 3-β-D-galactopyranosyl-oxymethyl-4-sulfato-methyl-furan]", "values": [{"measurement": "inhibition of adhesion to fibrinogen", "setting": "[4]; at 20 mM or rather 10 mM", "result": "completely inhibits"}, {"measurement": "inhibition of adhesion to fibronectin", "setting": "[4]; at 40 mM", "result": "completely inhibits"}, {"measurement": "inhibition of the adhesion of WM-266-4 cells to fibronectin", "setting": "[2]; concentration of 0.1 mM", "result": 8, "unit": "%"}, {"measurement": "inhibition of the adhesion of WM-266-4 cells to fibronectin", "setting": "[2]; concentration of 5 mM", "result": 26, "unit": "%"}, {"measurement": "inhibition of migration", "setting": "[5]", "result": "inhibited"}, {"measurement": "inhibit the cell migration of WM-115 cells", "setting": "[3]; Concentration 0.1 mM", "result": "-"}, {"measurement": "inhibit the cell migration of WM-115 cells", "setting": "[3]; Concentration 1 mM", "result": "-"}, {"measurement": "inhibit the cell migration of WM-115 cells", "setting": "[3]; Concentration 2.5 mM", "result": "+"}, {"measurement": "inhibit the cell migration of WM-115 cells", "setting": "[3]; Concentration 5mM", "result": "+++"}, {"measurement": "concentration at which the migration of human melanoma cells is inhibited", "setting": "[3]", "result": "greater than or equal to 2.5 mM"}, {"measurement": "inhibition of cell migration into a wound", "setting": "[6]", "result": "no detectable migration"}, {"measurement": "inhibition of adhesion to fibrinogen", "setting": "[7]; at 20 mM or rather 10 mM", "result": "completely inhibits"}, {"measurement": "inhibition of adhesion to fibronectin", "setting": "[7]; at 40 mM", "result": "completely inhibits"}, {"measurement": "inhibition of cell migration into a wound", "setting": "[8]", "result": "no detectable migration"}, {"measurement": "activation of the matrix-metalloproteinase-2 (MMP-2)", "setting": "[9]", "result": "decreased"}, {"measurement": "inhibition of migration", "setting": "[10]", "result": "inhibited"}]}
{"smiles": "O=S(=O)(O)OCc1cocc1CO[C@@H]1O[C@H](COS(=O)(=O)O)[C@H](O)[C@H](O)[C@H]1O", "note": "[GSSF, 3-(6-sulfato-β-D-galactopyranosyl-oxymethyl)-4-(sulfatomethyl)-furan]", "values": [{"measurement": "inhibition of HBMEC-60 cell adhesion to laminin", "setting": "[11]; 10 mM, compared with 10 mM GSF", "result": "better inhibitor"}, {"measurement": "inhibition of endothelial cell adhesion to laminin", "setting": "[11]; concentrations of 0.1, 0.5, 1 and 5 mM", "result": "significantly inhibited"}, {"measurement": "vitality test with Trypanblue", "setting": "[12]", "result": "cells were intact"}, {"measurement": "inhibit the cell migration of WM-115 cells", "setting": "[3]; Concentration 0.1 mM", "result": "++"}, {"measurement": "inhibit the cell migration of WM-115 cells", "setting": "[3]; Concentration 1 mM", "result": "++"}, {"measurement": "inhibit the cell migration of WM-115 cells", "setting": "[3]; Concentration 2.5 mM", "result": "+++"}, {"measurement": "inhibit the cell migration of WM-115 cells", "setting": "[3]; Concentration 5mM", "result": "+++"}, {"measurement": "concentration at which the migration of human melanoma cells is inhibited", "setting": "[3]", "result": 0.1, "unit": "mM"}]}
{"smiles": "O=S(=O)(O)OCc1cocc1CO[C@@H]1O[C@H](CO)[C@@H](O)[C@H](O)[C@H]1O", "note": "[GluSF, 3-(β-D-glucopyranosyl-oxymethyl)-4-(sulfatomethyl)-furan]", "values": [{"measurement": "vitality test with Trypanblue", "setting": "[12]", "result": "cells were intact"}, {"measurement": "inhibition of the adhesion of WM-266-4 cells to fibronectin", "setting": "[2]; concentration of 5 mM", "result": 79, "unit": "%"}, {"measurement": "inhibit the cell migration of WM-115 cells", "setting": "[3]; Concentration 0.1 mM", "result": "-"}, {"measurement": "inhibit the cell migration of WM-115 cells", "setting": "[3]; Concentration 1 mM", "result": "+"}, {"measurement": "inhibit the cell migration of WM-115 cells", "setting": "[3]; Concentration 2.5 mM", "result": "+"}, {"measurement": "inhibit the cell migration of WM-115 cells", "setting": "[3]; Concentration 5mM", "result": "+++"}, {"measurement": "concentration at which the migration of human melanoma cells is inhibited", "setting": "[3]", "result": 1, "unit": "mM"}]}
